In patent publication US8933232B2, “1,3,4-oxadiazole and 1,3,4-thiadiazole beta-lactamase inhibitors” (priority 2012, dated 2015):
Counter-ions that a name gives are not always drawn.

System: bacterial strains that express KPC β-lactamases
Experiment: Synergy MIC / standard BLI potentiation MIC assay against strains expressing KPC β-lactamases
Format: cell-based
Details: in the presence of a β-lactam; comparator Avibactam
Protocol: The experimental protocol was performed according to Clinical and Laboratory Standards Institute (CLSI) guidelines with modifications as described below (CLSI guidelines can be derived from the CLSI document M07-A9 published in January 2012: “Methods for Dilution Antimicrobial Susceptibility Tests for Bacteria That Grow Aerobically; Approved Standard-Ninth Edition”).
To prepare for MIC testing, frozen glycerol stocks of clinical isolates (Klebsiella pneumoniae, Eschericia coli, Enterobacter spp, Citrobacter spp, or Pseudomonas aeruginosa) were used to streak for isolated colonies on rich, non-selective, tryptic soy agar containing 5% sheep's blood (TSAB). Frozen glycerol stocks of laboratory engineered, isogenic E. coli strains, which contain cloned β-lactamase expressing plasmids were used to streak for isolated colonies on rich, selective LB agar supplemented with 25 μg/mL tetracycline to maintain the plasmid. All strains were incubated at 37° C. for 18-24 hrs.
On the day of testing, primary cultures were started by scraping off 5-10 colonies from the TSAB plates containing clinical strains or the tetracycline supplemented LB plates containing engineered strains. The clinical strain material was suspended in ˜5 mL of cation adjusted Mueller Hinton Broth (CAMHB) in 14 mL culture tubes. The engineered strain material was suspended in CAMHB (supplemented with 25 μg/mL tetracycline) in 14 mL culture tubes. All strains were incubated at 37° C. with aeration (200 rpm) for ˜2 hrs until the optical density at 600 nm (OD600) was >0.1.
The two compound components of the assay were each diluted in CAMHB and added to the 96-well broth microdilution assay plates. 50 μL of the β-lactam was added to each well of the assay plate in 2-fold dilutions with final concentrations ranging from 128 to 0.13 μg/mL. 25 μL, of the BLI compound was added to all wells in the broth microdilution plates at a final concentration of 4 μg/mL. Inoculum cultures were prepared by standardizing the primary cultures to OD600=0.1 and then adding 20 μL of the adjusted primary culture per 1 mL CAMHB for clinical strains or CAMHB (supplemented with tetracycline at 100 μg/mL) for engineered strains, so that the final inoculum density was ˜10^5 colony forming units per milliliter. Diluted inoculum cultures were used to inoculate 25 μl, per well in 96-well broth microdilution assay plates. The final volume of each well was 100 μL and contained a β-lactam at different concentrations, a BLIcompound at 4 μg/mL concentration, the bacterial culture at an OD600 of approximately 0.001 and when necessary tetracycline at 25 μg/mL.
Plates were incubated for 18-20 hours at 37° C. with aeration (200 rpm). Following incubation, growth was confirmed visually placing plates over a viewing apparatus (stand with a mirror underneath) and then OD600 was measured using a SpectraMax 340PC384 plate reader (Molecular Devices, Sunnyvale, Calif.). Growth was defined as turbidity that could be detected with the naked eye or achieving minimum OD600 of 0.1. MIC values were defined as the lowest concentration producing no visible turbidity.
The synergy MIC (sMIC) assay determines the concentration of the BLI required to potentiate the activity of a fixed concentration of a β-lactam antibiotic against β-lactamase producing bacterial strains. The experimental protocol was performed according to Clinical and Laboratory Standards Institute (CLSI) guidelines with modifications as described below (CLSI guidelines can be derived from the CLSI document M07-A9 published in January 2012: “Methods for Dilution Antimicrobial Susceptibility Tests for Bacteria That Grow Aerobically; Approved Standard-Ninth Edition”). […]

Row | Compound | more active than Avibactam for at least one bacterial strain that expresses KPC β-lactamase and/or better spectrum of activity against KPC strains
1 | NC1CCN(Cc2nnc([C@@H]3CC[C@@H]4CN3C(=O)N4OS(=O)(=O)O)o2)CC1 [Compound 774, (2S,5R)-2-(5-((4-aminopiperidin-1-yl)methyl)-1,3,4-oxadiazol-2-yl)-7-oxo-1,6-diazabicyclo[3.2.1]octan-6-yl hydrogen sulfate] | more active than Avibactam
2 | O=C1N2C[C@@H](CC[C@H]2c2nnc([C@H]3[C@@H]4CNC[C@@H]43)o2)N1OS(=O)(=O)O [Compound 740, (2S,5R)-2-(5-(3-azabicyclo[3.1.0]hexan-6-yl)-1,3,4-oxadiazol-2-yl)-7-oxo-1,6-diazabicyclo[3.2.1]octan-6-yl hydrogen sulfate] | more active than Avibactam
3 | O=C1N2C[C@@H](CC[C@H]2c2nnc(CN[C@@H]3CCNC3)o2)N1OS(=O)(=O)O [Compound 766, (2S,5R)-7-oxo-2-(5-(((R)-pyrrolidin-3-ylamino)methyl)-1,3,4-oxadiazol-2-yl)-1,6-diazabicyclo[3.2.1]octan-6-yl hydrogen sulfate] | more active than Avibactam
4 | O=C1N2C[C@@H](CC[C@H]2c2nnc(CCNC3CCNCC3)o2)N1OS(=O)(=O)O [Compound 770, (2S,5R)-7-oxo-2-(5-(2-(piperidin-4-ylamino)ethyl)-1,3,4-oxadiazol-2-yl)-1,6-diazabicyclo[3.2.1]octan-6-yl hydrogen sulfate] | more active than Avibactam
5 | O=C1N2C[C@@H](CC[C@H]2c2nnc([C@H]3CNCCN3)o2)N1OS(=O)(=O)O [Compound 779, (2S,5R)-7-oxo-2-(5-((R)-piperazin-2-yl)-1,3,4-oxadiazol-2-yl)-1,6-diazabicyclo[3.2.1]octan-6-yl hydrogen sulfate] | more active than Avibactam
6 | N[C@H]1CN[C@H](c2nnc([C@@H]3CC[C@@H]4CN3C(=O)N4OS(=O)(=O)O)o2)C1 [Compound 762, (2S,5R)-2-(5-((2S,4R)-4-aminopyrrolidin-2-yl)-1,3,4-oxadiazol-2-yl)-7-oxo-1,6-diazabicyclo[3.2.1]octan-6-yl hydrogen sulfate] | more active than Avibactam
7 | NC1(Cc2nnc([C@@H]3CC[C@@H]4CN3C(=O)N4OS(=O)(=O)O)o2)CC1 [Compound 724, (2S,5R)-2-(5-((1-aminocyclopropyl)methyl)-1,3,4-oxadiazol-2-yl)-7-oxo-1,6-diazabicyclo[3.2.1]octan-6-yl hydrogen sulfate] | more active than Avibactam
8 | N=C(N)N[C@H]1C[C@@H](c2nnc([C@@H]3CC[C@@H]4CN3C(=O)N4OS(=O)(=O)O)o2)C1 [Compound 749, 2S,5R)-2-(5-((1s,3R)-3-guanidinocyclobutyl)-1,3,4-oxadiazol-2-yl)-7-oxo-1,6-diazabicyclo[3.2.1]octan-6-yl hydrogen sulfate] | more active than Avibactam
9 | O=C1N2C[C@@H](CC[C@H]2c2nnc(CNC3CNC3)o2)N1OS(=O)(=O)O [Compound 726, (2S,5R)-2-(5-((azetidin-3-ylamino)methyl)-1,3,4-oxadiazol-2-yl)-7-oxo-1,6-diazabicyclo[3.2.1]octan-6-yl hydrogen sulfate] | more active than Avibactam
10 | O=C1N2C[C@@H](CC[C@H]2c2nnc(C3CNC3)o2)N1OS(=O)(=O)O [Compound 708, (2S,5R)-2-(5-(azetidin-3-yl)-1,3,4-oxadiazol-2-yl)-7-oxo-1,6-diazabicyclo[3.2.1]octan-6-yl hydrogen sulfate] | more active than Avibactam
11 | O=C1N2C[C@@H](CC[C@H]2c2nnc(C3CCNCC3)o2)N1OS(=O)(=O)O [Compound 711, (2S,5R)-7-oxo-2-(5-(piperidin-4-yl)-1,3,4-oxadiazol-2-yl)-1,6-diazabicyclo[3.2.1]octan-6-yl hydrogen sulfate] | more active than Avibactam
12 | N=C1NCC(c2nnc([C@@H]3CC[C@@H]4CN3C(=O)N4OS(=O)(=O)O)o2)N1 (stereo partly drawn) [Compound 767, (2S,5R)-2-(5-(2-iminoimidazolidin-4-yl)-1,3,4-oxadiazol-2-yl)-7-oxo-1,6-diazabicyclo[3.2.1]octan-6-yl hydrogen sulfate] | more active than Avibactam
13 | N=C(N)N1CC(NCc2nnc([C@@H]3CC[C@@H]4CN3C(=O)N4OS(=O)(=O)O)o2)C1 [Compound 746, (2S,5R)-2-(5-(((1-carbamimidoylazetidin-3-yl)amino)methyl)-1,3,4-oxadiazol-2-yl)-7-oxo-1,6-diazabicyclo[3.2.1]octan-6-yl hydrogen sulfate] | more active than Avibactam
14 | N[C@H]1C[C@H](CCc2nnc([C@@H]3CC[C@@H]4CN3C(=O)N4OS(=O)(=O)O)o2)C1 [Compound 753, (2S,5R)-2-(5-(2-((1r,3R)-3-aminocyclobutyl)ethyl)-1,3,4-oxadiazol-2-yl)-7-oxo-1,6-diazabicyclo[3.2.1]octan-6-yl hydrogen sulfate] | more active than Avibactam
15 | O=C1N2C[C@@H](CC[C@H]2c2nnc(C3CCNC3)o2)N1OS(=O)(=O)O (stereo partly drawn) [Compound 710, (2S,5R)-7-oxo-2-(5-(pyrrolidin-3-yl)-1,3,4-oxadiazol-2-yl)-1,6-diazabicyclo[3.2.1]octan-6-yl hydrogen sulfate] | more active than Avibactam
16 | O=C1N2C[C@@H](CC[C@H]2c2nnc(CCCCNC3CCNCC3)o2)N1OS(=O)(=O)O [Compound 772, (2S,5R)-7-oxo-2-(5-(4-(piperidin-4-ylamino)butyl)-1,3,4-oxadiazol-2-yl)-1,6-diazabicyclo[3.2.1]octan-6-yl hydrogen sulfate] | more active than Avibactam
17 | O=C1N2C[C@@H](CC[C@H]2c2nnc(CCC3CNC3)o2)N1OS(=O)(=O)O [Compound 742, (2S,5R)-2-(5-(2-(azetidin-3-yl)ethyl)-1,3,4-oxadiazol-2-yl)-7-oxo-1,6-diazabicyclo[3.2.1]octan-6-yl hydrogen sulfate] | more active than Avibactam
18 | O=C1N2C[C@@H](CC[C@H]2c2nnc([C@@H]3CCNC3)o2)N1OS(=O)(=O)O [Compound 759, (2S,5R)-7-oxo-2-(5-((R)-pyrrolidin-3-yl)-1,3,4-oxadiazol-2-yl)-1,6-diazabicyclo[3.2.1]octan-6-yl hydrogen sulfate] | more active than Avibactam
19 | N[C@H]1CC[C@@H](c2nnc([C@@H]3CC[C@@H]4CN3C(=O)N4OS(=O)(=O)O)o2)C1 [Compound 768, (2S,5R)-2-(5-((1R,3S)-3-aminocyclopentyl)-1,3,4-oxadiazol-2-yl)-7-oxo-1,6-diazabicyclo[3.2.1]octan-6-yl hydrogen sulfate] | more active than Avibactam
20 | O=C1N2C[C@@H](CC[C@H]2c2nnc(CC3CCNC3)o2)N1OS(=O)(=O)O (stereo partly drawn) [Compound 764, (2S,5R)-7-oxo-2-(5-(pyrrolidin-3-ylmethyl)-1,3,4-oxadiazol-2-yl)-1,6-diazabicyclo[3.2.1]octan-6-yl hydrogen sulfate] | more active than Avibactam
